For data set [1], the system named is HCT116 cells. In words: Antiproliferative activity, Alamar Blue assay, HCT116 cells. Particulars: for IC50: Homo sapiens, HCT-116, HCT116 cells, read-out: HCT116 antiproliferative activity pIC50 (converted). Also noted: key to HCT116 antiproliferative activity pIC50: pIC50 = -log IC50 (IC50: conc. reducing growth to 50% of control). Format: cell-based, human. The method, boiled down: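 Readout is resazurin fluorescence (ex 540, em 590 nm) after a 4 h dye incubation at 37 °C, following 4-day compound treatment of HCT116 cells plated 24 h earlier. Results expressed as % viable cells versus untreated; pIC50 derived from probit-fitted IC50.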
(The colour change of resazurin is a common sign of viable cells or microbes.)

The test system of data set [2] is tubulin. In words: Tubulin polymerization assay. The class given is biochemical. Particulars: tested at 20 μM and 5 μM. Details: key: a compound showing 0 to 50% inhibition at 20 μM is reported as score 1; Score 2 compounds are defined as compound showing more than 50% inhibition at 20 μM and less than 50% inhibition at 5 μM; a compound showing more than 50% inhibition at 5 μM is reported as score 3. As to the method: The tubulin polymerization assay is an adaptation of an assay originally described by Bonne, D. et al. (J. Biol. Chem., 1985, 260:2819-25). The assay kit was purchased from Cytoskeleton, Inc. (catalogue number BK011) and the assay was performed as described by the supplier with the following modifications. The assay was run in a 384-well black Proxiplate (Perkin Elmer) and volumes were adapted accordingly. The reactions were carried out in a final volume of 10 μl. Compounds were added to 25 μl of the reaction mix in 96-well PP plates (Corning) on ice and 10 μl of this mixture was dispensed into duplicates of the 384-well Proxiplates pre-warmed to 37° C. in a Fluoroskan Ascent plate reader (Thermo Scientific). Fluorescence measurements were taken every minute for one hour. The maximum slope of each well was determined (linear regression through 4 consecutive points) and polymerization was calculated as a percentage of polymerization observed in the absence of compound. Compounds were first measured at a concentration of 20 μM and then at 5 μM for those showing more than 50% inhibition at 20 μM as compared to the polymerization observed in the absence of compound. Results are reported in Table F-2 as scores defined as: a compound showing 0 to 50% inhibition at 20 μM is reported as score 1; a compound showing more than 50% inhibition at 5 μM is reported as score 3.

The values that follow come from patent US8778966B2, “Quinolinone derivatives as PARP and tank inhibitors” (Janssen Pharmaceutica, NV, priority 2007, dated 2014).

One may read the melting point as the temperature of the solid-liquid transition.

Some results are limits rather than exact numbers.

`CCc1cc2ccc(C(C)(C#N)CC3COc4ccccc4O3)cc2[nH]c1=O` (single isomer, unassigned) [Compound 48]: the melting point is 241 °C. For the same compound, in data set [1] (HCT116 cells), the “HCT116 antiproliferative activity pIC50” value turned out to be 5.8.
`CCc1cc2ccc(C(C)(C#N)Cc3cccc(C(=O)O)c3)cc2[nH]c1=O` (stereo not shown) [Compound 10]: the melting point is more than 260 °C. Also, in data set [1], the IC50 was more than 10 µM.
For `CCc1cc2ccc(C(C)(C#N)Cc3cccc(-c4nc(C)no4)c3)cc2[nH]c1=O` (stereo not shown) [Compound 11] the same measures were 152 °C and 1.58 µM.
On to `CCc1cc2ccc(C(C)(C#N)Cc3cccc(C(=O)OC)c3)cc2[nH]c1=O` (stereo not shown) [Compound 12], for which the melting point worked out at 140 °C. Further, the IC50 in data set [1] is 0.0316 µM.
For `CCc1cc2ccc(C(C)(C#N)Cc3cccc(C(=O)NC)c3)cc2[nH]c1=O` (stereo not shown) [Compound 13] the same measures were 182 °C and 7.94 µM.
Compound `CCc1cc2ccc(C(C)(C#N)Cc3cccc(NS(C)(=O)=O)c3)cc2[nH]c1=O` (stereo not shown) [Compound 14] registered a melting point of 80 °C. Moreover, the IC50 in data set [1] is more than 10 µM.
As for `CCc1cc2ccc(C(C)(C#N)Cc3cccc(N)c3)cc2[nH]c1=O` (stereo not shown) [Compound 15], the melting point is 187 °C. In addition, the IC50 in data set [1] was 1 µM.
The like results for `CCc1cc2ccc(C(C)(C#N)Cc3cccc(NC(=O)N4CCOCC4)c3)cc2[nH]c1=O` (stereo not shown) [Compound 16] were, in that order, 121 °C and more than 10 µM.
As for `CCc1cc2ccc(C(C)(C#N)Cc3ccccc3F)cc2[nH]c1=O` (stereo not shown) [Compound 106], the IC50 in data set [1] was 0.398 µM. Besides, in data set [2], the tubulin polymerisation score was 1 (a compound showing 0 to 50% inhibition at 20 μM is reported as score 1).
Turning to `CCc1cc2ccc(C(C)(C#N)Cc3cccc(C(F)(F)F)c3)cc2[nH]c1=O` (stereo not shown) [Compound 109], the IC50 in data set [1] was 0.251 µM. In data set [2], this compound returned a tubulin polymerisation score of 2.
For `CCc1cc2ccc(C(C)(C#N)Cc3cccc(F)c3)cc2[nH]c1=O` (stereo not shown) [Compound 112] the same measures were 0.316 µM and 1 (a compound showing 0 to 50% inhibition at 20 μM is reported as score 1).
For `CCc1cc2ccc(C(C)(C#N)Cc3cccc(OC)c3)cc2[nH]c1=O` (stereo not shown) [Compound 113] the same measures were 0.398 µM and 2.
With `CCc1cc2ccc(C(C)(C#N)Cc3ccc(F)cc3)cc2[nH]c1=O` (stereo not shown) [Compound 115], in data set [1], the IC50 is 0.631 µM. Further, the tubulin polymerisation score in data set [2] was found to be 2.
For `CCc1cc2ccc(C(C)(C#N)Cc3ccc(C)cc3)cc2[nH]c1=O` (stereo not shown) [Compound 117] the same measures were 2.51 µM and 2.
For `CCc1cc2ccc(C(C)(C#N)Cc3cc(F)cc(Cl)c3)cc2[nH]c1=O` (stereo not shown) [Compound 126] the same measures were 0.2 µM and 2.
As to `CCc1cc2ccc(C(C)(C#N)Cc3cc(F)cc(F)c3)cc2[nH]c1=O` (stereo not shown) [Compound 128], the IC50 in data set [1] is 0.126 µM. Besides, the tubulin polymerisation score in data set [2] is on record as 1 (a compound showing 0 to 50% inhibition at 20 μM is reported as score 1).
For `CCc1cc2ccc(C(C)(C#N)Cc3cccc(Cl)c3F)cc2[nH]c1=O` (stereo not shown) [Compound 130] the same measures were 0.158 µM and 2.
The like results for `CCc1cc2ccc(C(C)(C#N)Cc3ccc(F)cc3F)cc2[nH]c1=O` (stereo not shown) [Compound 137] were, in that order, 0.251 µM and 1 (a compound showing 0 to 50% inhibition at 20 μM is reported as score 1).
In the case of `CCc1cc2ccc(C(C)(C#N)Cc3c(F)cccc3F)cc2[nH]c1=O` (stereo not shown) [Compound 138], the IC50 in data set [1] is 0.251 µM. In data set [2], the tubulin polymerisation score is 1 (a compound showing 0 to 50% inhibition at 20 μM is reported as score 1).
For `CCc1cc2ccc(C(C)(C#N)CCOc3cccc(C)c3)cc2[nH]c1=O` (stereo not shown) [Compound 143] the same measures were 0.501 µM and 2.
The like results for `CCc1cc2ccc(C(C)(C#N)CCOc3ccccc3C)cc2[nH]c1=O` (stereo not shown) [Compound 148] were, in that order, 0.316 µM and 1 (a compound showing 0 to 50% inhibition at 20 μM is reported as score 1).
For `CCc1cc2ccc(C(C)(C#N)CCOc3ccc(C)cc3)cc2[nH]c1=O` (stereo not shown) [Compound 149] the same measures were 0.631 µM and 2.
In the case of `CCc1cc2ccc(C(C)(C#N)CCOc3cccc(Cl)c3)cc2[nH]c1=O` (stereo not shown) [Compound 151], in data set [1], the IC50 is 0.631 µM. In data set [2], this compound gave a tubulin polymerisation score of 2.
For `CCc1cc2ccc(C(C)(C#N)CCOc3ccccc3Cl)cc2[nH]c1=O` (stereo not shown) [Compound 152] the same measures were 0.631 µM and 2.
The like results for `CCc1cc2ccc(C(C)(C#N)CCOc3ccccc3Br)cc2[nH]c1=O` (stereo not shown) [Compound 153] were, in that order, 0.2 µM and 2.
For `CCc1cc2ccc(C(C)(C#N)CCOc3ccc(C#N)cc3)cc2[nH]c1=O` (stereo not shown) [Compound 161] the same measures were 0.501 µM and 2.
Consider `CCc1cc2ccc(C(C)(C#N)CCOc3cccc4c3OCCO4)cc2[nH]c1=O` (stereo not shown) [Compound 163], for which the IC50 in data set [1] was 0.398 µM. Besides, the tubulin polymerisation score in data set [2] was 2.
With `CCc1cc2ccc([C@](C)(C#N)C[C@@H]3CCc4cc(C)ccc4O3)cc2[nH]c1=O` [Compound 251], the melting point turned out to be 192 °C. Moreover, the IC50 in data set [1] was 0.631 µM.
With `CCc1cc2ccc([C@@](C)(C#N)C[C@@H]3CCc4cc(C)ccc4O3)cc2[nH]c1=O` [Compound 252], the melting point turned out to be 184 °C. Also, in data set [1], the IC50 is 0.126 µM.
